Measurements from US20150164833A1, “NUTRITIONAL COMPOSITION CONTAINING A NEUROLOGIC COMPONENT OF URSOLIC ACID AND USES THEREOF” (MEAD JOHNSON NUTRITION COMPANY, priority 2013, published 2015).

Test system: human adipose-derived stem cells (hADSCs)
Assay: Neurogenesis (neuronal differentiation) of hADSCs in serum-free neuronal differentiation medium, phase contrast microscopy
Assay type: cell-based
Method: This example describes the neurogenesis of hADSCs by ursolic acid as compared to DHA (positive control) and hADSCs cultured in the absence of either ursolic acid and DHA (negative control). Ursolic acid was purchased from Sigma-Aldrich (Cat. No. U6753) and diluted in 95% ethanol to a concentration of […], giving a clear faint yellow stick solution that was then stored at −20° C.
hADSCs were purchased from Invitrogen®, also known as Life Technologies, of Carlsbad, Calif., U.S.A., and were cultured as near confluent monolayers in 100 mm culture plates within a maintenance medium consisting of Complete MesenPro RS™ medium with growth supplement and L-glutamine, also obtained from Invitrogen®. The process of culturing, passage, and seeding the hADSCs is described below. The cells were then subjected to removal and reseeded at a density of 0.5-1×10^4 cells/mL onto a 24-well culture plate with poly-L-ornithine and bovine plasma fibronectin coating. The culture medium is the same as the aforementioned maintenance medium. Three days after seeding, the culture medium was changed to a neuronal differentiation medium.
The subculture of hADSCs was performed when cell culture reached confluence. […]

C[C@H]1[C@H](C)CC[C@]2(C(=O)O)CC[C@]3(C)C(=CC[C@@H]4[C@@]5(C)CC[C@H](O)C(C)(C)[C@@H]5CC[C@]43C)[C@H]12 [ursolic acid, 3-beta-3-hydroxy-urs-12-ene-28-oic-acid]
neurogenesis of hADSCs (cells undergoing neurogenesis) (30-120 μg/mL ursolic acid, phase contrast microscopy at 24, 48 and 96 hours): A large percentage of cells underwent neurogenesis
neuronal morphology of hADSCs (ursolic acid at 60 μg/mL, phase contrast microscopy, FIG. 1C): neuronal morphological changes and neurite outgrowth
